Source: publication PMC3140810 (International Journal of Women's Health, 2011)

Target: CYP3A4 (Homo sapiens, UniProt P08684)
Assay: LC-MS/MS of 1-hydroxymidazolam, human liver microsomes
Type: biochemical

Sequence of CYP3A4 (P08684 2-503): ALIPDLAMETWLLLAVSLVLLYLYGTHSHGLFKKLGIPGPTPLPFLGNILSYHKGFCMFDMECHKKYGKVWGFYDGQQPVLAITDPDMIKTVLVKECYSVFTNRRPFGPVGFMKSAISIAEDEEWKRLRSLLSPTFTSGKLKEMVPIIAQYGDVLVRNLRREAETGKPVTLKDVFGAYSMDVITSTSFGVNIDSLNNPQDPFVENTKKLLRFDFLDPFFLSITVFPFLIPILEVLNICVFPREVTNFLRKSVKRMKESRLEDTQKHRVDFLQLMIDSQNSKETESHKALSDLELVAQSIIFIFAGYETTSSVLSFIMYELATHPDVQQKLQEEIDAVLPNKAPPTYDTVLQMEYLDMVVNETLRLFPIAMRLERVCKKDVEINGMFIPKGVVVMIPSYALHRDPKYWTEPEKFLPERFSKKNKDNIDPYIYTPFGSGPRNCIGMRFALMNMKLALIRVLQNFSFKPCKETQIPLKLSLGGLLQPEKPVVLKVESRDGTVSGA

O=c1c(-c2ccc(O)cc2)coc2cc(O)cc(O)c12 [genistein]
Liver microsome inhibition genistein (25 μM): 19%
